Results on 1 compound are retold here after patent US20060062850A1, “Controlled release antimicrobial polymer compositions” (priority 2004, published 2006).

Experiment [1] concerns L. monocytogenes 15313. The experiment in a line: film on lawn assay. It counts as cell-based. The conditions noted are these: incubation at 37 C. As for the experimental part:
In a film on lawn assay, films of Example 1 and Example 2 were cut into 15 mm by 15 mm samples, placed onto aluminum foil, and exposed to UV light in a laminar flow hood for 4 to 7 minutes. The samples were then transferred from the foil to one of six freshly made up antimicrobial solutions to imbibe for 12 to 24 hours at a specified temperature (4° C. or 37° C.). The films are expected to substantially reach equilibration in less than 12 hours. The films were removed with a pair of flame-sterilized ocular forceps, allowed to drip dry, and held for 60 seconds on a sterile Petri dish before positioning on TSA and MOX agar plates. The agar plates had been prepared as described above with respect to the spot on lawn assay. Two films were placed on each of the prepared agar plates, in well-separated regions. A third 15 mm×15 mm film was imbibed under the same conditions in a negative control solution and placed in another region of the plate. Three plates were prepared in this manner for each concentration of each antimicrobial agent. In the case of the MOX agar plates, a fourth plate was prepared with the same level of innoculum, with no films in it, to serve as a growth indicator plate for color change. After film placement, the plates were allowed to stand undisturbed for 10 to 30 minutes in a laminar flow hood before incubation for at least 24 hours.
Incubation took place at either 4° C. for 14 to 28 days or 37° C. for two to five days. The incubation conditions are noted in the Tables.
The zone of inhibition resulting from each spot of antimicrobial solution was measured as described above, with respect to the spot on lawn assay. The values reported in Tables 5 and 6 are the average of 12 measurements. Occasionally inhibition could be observed on the MOX agar plates, but not easily measured, owing to the relatively diffuse boundaries between areas of inhibition and non-inhibition. In such cases, a qualitative description of the results is provided.

The subject of experiment [2] is L. monocytogenes 15313. Kind of experiment: spot on lawn assay. The experiment is classed as cell-based. The method, then:
For each concentration of each antimicrobial agent, a spot on lawn assay was conducted as a positive control experiment to assess the efficacy of the antimicrobial solutions. In this assay, Trypticase Soy Agar (TSA) and Modified Oxford Agar (MOX) agar plates were inoculated with L. monocytogenes 15313 at a level of 10E+08 cfu/ml through an Autoplate 4000 model from Spiral Biotech, Inc., of Norwood, Mass. A volumetric pipette pump was then used to place three 10 μl spots of antimicrobial solution onto three well-separated regions of the test plate. Another volumetric pipette pump was used to place 10 μl of a negative control solution (i.e., neat solvent(s)) onto another well-separated region. Three such agar plates were prepared for each concentration of antimicrobial solution. After spot placement, the agar plates were allowed to stand undisturbed for 10 to 30 minutes in a laminar flow hood before incubation at 37° C. for at least 24 hours.
The zone of inhibition resulting from each spot of antimicrobial solution was measured using a dial caliper (available from Brown and Sharpe of North Kingstown, R.I.; accuracy to 0.02 mm). Each zone of inhibition was measured twice, once on each of two perpendicular axes. The values reported in Tables 2 (TSA plates) and 3 (MOX plates) are the average of 18 measurements.

On to `O=C(O)c1ccccc1` [Benzoic acid], for which the “Group averages of Inhibition Zones, Film on Lawn Assay Example 1” value was 0 (no inhibition) mm in experiment [1] (MOX Agar Plates, Example 1 film soaked at 37 C. in 0.75 wt % solution, Ethanol/Water (36/63.25)); 24.0 ± 3.34 mm in experiment [1] (MOX Agar Plates, Example 1 film soaked at 37 C. in 1.5 wt % solution, Ethanol/Water (36/62.5)); 39.52 ± 2.93 mm in experiment [1] (MOX Agar Plates, Example 1 film soaked at 37 C. in 3.0 wt % solution, Ethanol/Water (36/61)); 0 (no inhibition) mm in experiment [1] (TSA Agar, Example 1 film soaked at 37 C. in 0.75 wt % solution, Ethanol/Water (36/63.25)); 17.68 ± 1.64 mm in experiment [1] (TSA Agar, Example 1 film soaked at 37 C. in 1.5 wt % solution, Ethanol/Water (36/62.5)); 20.17 ± 1.19 mm in experiment [1] (TSA Agar, Example 1 film soaked at 37 C. in 3.0 wt % solution, Ethanol/Water (36/61)). Also, the “Group averages of Inhibition Zones, Film on Lawn Assay Example 2” value in experiment [1] (MOX Agar Plates, Example 2 film soaked at 37 C. in 0.75 wt % solution, Ethanol/Water (36/63.25)) is reported as 0 (no inhibition) mm; in experiment [1] (MOX Agar Plates, Example 2 film soaked at 37 C. in 1.5 wt % solution, Ethanol/Water (36/62.5)), 21.38 ± 3.90 mm; in experiment [1] (MOX Agar Plates, Example 2 film soaked at 37 C. in 3.0 wt % solution, Ethanol/Water (36/61)) it was 32.29 ± 7.53 mm; in experiment [1] (TSA Agar, Example 2 film soaked at 37 C. in 0.75 wt % solution, Ethanol/Water (36/63.25)), 0 (no inhibition) mm; in experiment [1] (TSA Agar, Example 2 film soaked at 37 C. in 1.5 wt % solution, Ethanol/Water (36/62.5)), 18.60 ± 0.61 mm; in experiment [1] (TSA Agar, Example 2 film soaked at 37 C. in 3.0 wt % solution, Ethanol/Water (36/61)) it was 18.90 ± 1.82 mm. The “Group averages of Inhibition Zones, Spot on Lawn Assay” value is given as 7.91 mm in experiment [2] (MOX Agar Plates, 0.75 wt % in Ethanol/Water (36/63.25)); 8.66 mm in experiment [2] (MOX Agar Plates, 1.5 wt % in Ethanol/Water (36/62.5)); 8.75 mm in experiment [2] (MOX Agar Plates, 3.0 wt % in Ethanol/Water (36/61)); 8.13 ± 0.27 mm in experiment [2] (TSA Agar, 0.75 wt % in Ethanol/Water (36/63.25)); 8.32 ± 0.69 mm in experiment [2] (TSA Agar, 1.5 wt % in Ethanol/Water (36/62.5)); 8.32 ± 0.53 mm in experiment [2] (TSA Agar, 3.0 wt % in Ethanol/Water (36/61)).
